{"source": "PubChem BioAssay (NCI)", "assay_in_all_cases": "inhibition of tumour cell growth, NCI panel, 384-well format", "key": {"NCI-H460 NSCLC": {"system": "NCI-H460 NSCLC"}, "RPMI-8226 leukemia": {"system": "RPMI-8226 leukemia"}, "UACC-62 melanoma": {"system": "UACC-62 melanoma"}, "NCI-H226 lung": {"system": "NCI-H226 lung"}, "SW-620 colon": {"system": "SW-620 colon"}, "HOP-92 NSCLC": {"system": "HOP-92 NSCLC"}, "SR leukemia": {"system": "SR leukemia"}, "HL-60(TB) leukemia": {"system": "HL-60(TB) leukemia"}, "SF-295 CNS": {"system": "SF-295 CNS"}, "SK-MEL-5 melanoma": {"system": "SK-MEL-5 melanoma"}, "MCF7 breast": {"system": "MCF7 breast"}, "PC-3 prostate": {"system": "PC-3 prostate"}, "TK-10 renal": {"system": "TK-10 renal"}, "ACHN renal": {"system": "ACHN renal"}, "CCRF-CEM leukemia": {"system": "CCRF-CEM leukemia"}, "MOLT-4 leukemia": {"system": "MOLT-4 leukemia"}, "NCI/ADR-RES ovarian": {"system": "NCI/ADR-RES ovarian"}, "LOX IMVI melanoma": {"system": "LOX IMVI melanoma"}, "HS 578T breast": {"system": "HS 578T breast"}, "SF-539 CNS": {"system": "SF-539 CNS"}, "RXF 393 renal": {"system": "RXF 393 renal"}, "MDA-MB-435 melanoma": {"system": "MDA-MB-435 melanoma"}, "CAKI-1 renal": {"system": "CAKI-1 renal"}, "OVCAR-5 ovarian": {"system": "OVCAR-5 ovarian"}, "U251 glioblastoma": {"system": "U251 glioblastoma"}, "MDA-MB-468 breast": {"system": "MDA-MB-468 breast"}, "SF-268 CNS": {"system": "SF-268 CNS"}, "HOP-62 NSCLC": {"system": "HOP-62 NSCLC"}, "UACC-257 melanoma": {"system": "UACC-257 melanoma"}}, "note": "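GI50 = concentration required for 50% inhibition of growth. TGI: total growth inhibition.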"}
{"smiles": "C[C@@H](Oc1ccc(Oc2cnc3ccc(Cl)cc3n2)cc1)C(=O)O", "values": [{"measurement": "GI50", "setting": "NCI-H460 NSCLC", "value": 6.16, "unit": "µM"}, {"measurement": "TGI", "setting": "NCI-H460 NSCLC", "value": "> 100", "unit": "µM"}, {"measurement": "GI50", "setting": "RPMI-8226 leukemia", "value": "> 100", "unit": "µM"}, {"measurement": "TGI", "setting": "RPMI-8226 leukemia", "value": "> 100", "unit": "µM"}, {"measurement": "GI50", "setting": "UACC-62 melanoma", "value": 36.5, "unit": "µM"}, {"measurement": "TGI", "setting": "UACC-62 melanoma", "value": "> 100", "unit": "µM"}, {"measurement": "GI50", "setting": "NCI-H226 lung", "value": "> 100", "unit": "µM"}, {"measurement": "TGI", "setting": "NCI-H226 lung", "value": "> 100", "unit": "µM"}, {"measurement": "GI50", "setting": "SW-620 colon", "value": 43.4, "unit": "µM"}, {"measurement": "TGI", "setting": "SW-620 colon", "value": "> 100", "unit": "µM"}, {"measurement": "GI50", "setting": "HOP-92 NSCLC", "value": 96.4, "unit": "µM"}, {"measurement": "TGI", "setting": "HOP-92 NSCLC", "value": "> 100", "unit": "µM"}, {"measurement": "GI50", "setting": "SR leukemia", "value": 1.71, "unit": "µM"}, {"measurement": "TGI", "setting": "SR leukemia", "value": 4.65, "unit": "µM"}, {"measurement": "GI50", "setting": "HL-60(TB) leukemia", "value": 4.5, "unit": "µM"}, {"measurement": "TGI", "setting": "HL-60(TB) leukemia", "value": 26.1, "unit": "µM"}, {"measurement": "GI50", "setting": "SF-295 CNS", "value": 33.2, "unit": "µM"}, {"measurement": "TGI", "setting": "SF-295 CNS", "value": "> 100", "unit": "µM"}, {"measurement": "GI50", "setting": "SK-MEL-5 melanoma", "value": 62.5, "unit": "µM"}, {"measurement": "TGI", "setting": "SK-MEL-5 melanoma", "value": "> 100", "unit": "µM"}, {"measurement": "GI50", "setting": "MCF7 breast", "value": 22.5, "unit": "µM"}, {"measurement": "TGI", "setting": "MCF7 breast", "value": "> 100", "unit": "µM"}, {"measurement": "GI50", "setting": "PC-3 prostate", "value": "> 100", "unit": "µM"}, {"measurement": "TGI", "setting": "PC-3 prostate", "value": "> 100", "unit": "µM"}, {"measurement": "GI50", "setting": "TK-10 renal", "value": 61.4, "unit": "µM"}, {"measurement": "TGI", "setting": "TK-10 renal", "value": "> 100", "unit": "µM"}, {"measurement": "GI50", "setting": "ACHN renal", "value": 32.1, "unit": "µM"}, {"measurement": "TGI", "setting": "ACHN renal", "value": "> 100", "unit": "µM"}, {"measurement": "GI50", "setting": "CCRF-CEM leukemia", "value": 3.68, "unit": "µM"}, {"measurement": "TGI", "setting": "CCRF-CEM leukemia", "value": "> 100", "unit": "µM"}, {"measurement": "GI50", "setting": "MOLT-4 leukemia", "value": 1.46, "unit": "µM"}, {"measurement": "TGI", "setting": "MOLT-4 leukemia", "value": 2.82, "unit": "µM"}, {"measurement": "GI50", "setting": "NCI/ADR-RES ovarian", "value": 78.3, "unit": "µM"}, {"measurement": "TGI", "setting": "NCI/ADR-RES ovarian", "value": "> 100", "unit": "µM"}, {"measurement": "GI50", "setting": "LOX IMVI melanoma", "value": "> 100", "unit": "µM"}, {"measurement": "TGI", "setting": "LOX IMVI melanoma", "value": "> 100", "unit": "µM"}, {"measurement": "GI50", "setting": "HS 578T breast", "value": "> 100", "unit": "µM"}, {"measurement": "TGI", "setting": "HS 578T breast", "value": "> 100", "unit": "µM"}, {"measurement": "GI50", "setting": "SF-539 CNS", "value": 97.1, "unit": "µM"}, {"measurement": "TGI", "setting": "SF-539 CNS", "value": "> 100", "unit": "µM"}, {"measurement": "GI50", "setting": "RXF 393 renal", "value": 97.5, "unit": "µM"}, {"measurement": "TGI", "setting": "RXF 393 renal", "value": "> 100", "unit": "µM"}, {"measurement": "GI50", "setting": "MDA-MB-435 melanoma", "value": "> 100", "unit": "µM"}, {"measurement": "TGI", "setting": "MDA-MB-435 melanoma", "value": "> 100", "unit": "µM"}, {"measurement": "GI50", "setting": "CAKI-1 renal", "value": 85.3, "unit": "µM"}, {"measurement": "TGI", "setting": "CAKI-1 renal", "value": "> 100", "unit": "µM"}, {"measurement": "GI50", "setting": "OVCAR-5 ovarian", "value": "> 100", "unit": "µM"}, {"measurement": "TGI", "setting": "OVCAR-5 ovarian", "value": "> 100", "unit": "µM"}, {"measurement": "GI50", "setting": "U251 glioblastoma", "value": 63.9, "unit": "µM"}, {"measurement": "TGI", "setting": "U251 glioblastoma", "value": "> 100", "unit": "µM"}, {"measurement": "GI50", "setting": "MDA-MB-468 breast", "value": 24.8, "unit": "µM"}, {"measurement": "TGI", "setting": "MDA-MB-468 breast", "value": "> 100", "unit": "µM"}, {"measurement": "GI50", "setting": "SF-268 CNS", "value": "> 100", "unit": "µM"}, {"measurement": "TGI", "setting": "SF-268 CNS", "value": "> 100", "unit": "µM"}, {"measurement": "GI50", "setting": "HOP-62 NSCLC", "value": 43.3, "unit": "µM"}, {"measurement": "TGI", "setting": "HOP-62 NSCLC", "value": "> 100", "unit": "µM"}, {"measurement": "GI50", "setting": "UACC-257 melanoma", "value": "> 100", "unit": "µM"}, {"measurement": "TGI", "setting": "UACC-257 melanoma", "value": "> 100", "unit": "µM"}]}
